Source: ChEMBL document CHEMBL5360622, “Leucettinibs, a Class of DYRK/CLK Kinase Inhibitors Inspired by the Marine Sponge Natural Product Leucettamine B” (J Med Chem, 2023)

Assays:
[1] = molecular target: Dual specificity protein kinase CLK4 (Homo sapiens, UniProt Q9HAZ1)
[2] = molecular target: Glycogen synthase kinase-3 beta (Homo sapiens, UniProt P49841); type: cell-based, Sf9
[3] = molecular target: Cyclin-dependent kinase 5/CDK5 activator 1 (Homo sapiens, UniProt Q00535); type: cell-based, Sf9
[4] = molecular target: T1, Dual specificity tyrosine-phosphorylation-regulated kinase 2 (Homo sapiens, UniProt Q92630)
T1 sequence (Q92630 whole entry): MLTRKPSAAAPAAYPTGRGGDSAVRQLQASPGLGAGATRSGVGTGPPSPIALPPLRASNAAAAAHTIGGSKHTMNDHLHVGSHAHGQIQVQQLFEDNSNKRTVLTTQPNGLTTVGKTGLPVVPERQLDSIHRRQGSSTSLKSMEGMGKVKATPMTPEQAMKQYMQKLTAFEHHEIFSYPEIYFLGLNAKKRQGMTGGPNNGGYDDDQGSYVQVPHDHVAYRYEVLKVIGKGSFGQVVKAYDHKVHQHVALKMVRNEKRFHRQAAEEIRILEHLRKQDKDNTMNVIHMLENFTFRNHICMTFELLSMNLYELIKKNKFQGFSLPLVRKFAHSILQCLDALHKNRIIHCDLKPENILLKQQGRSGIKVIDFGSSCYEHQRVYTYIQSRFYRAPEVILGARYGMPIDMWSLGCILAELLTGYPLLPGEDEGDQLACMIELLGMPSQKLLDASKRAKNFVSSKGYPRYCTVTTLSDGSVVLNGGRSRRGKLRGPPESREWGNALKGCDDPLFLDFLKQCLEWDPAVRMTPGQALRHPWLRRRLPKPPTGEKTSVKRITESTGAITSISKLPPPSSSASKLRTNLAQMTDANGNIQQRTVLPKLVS

[5] = molecular target: Casein kinase I isoform epsilon (Homo sapiens, UniProt P49674)
[6] = molecular target: T2, Dual specificity tyrosine-phosphorylation-regulated kinase 3 (Homo sapiens, UniProt O43781)
T2 sequence (O43781 whole entry): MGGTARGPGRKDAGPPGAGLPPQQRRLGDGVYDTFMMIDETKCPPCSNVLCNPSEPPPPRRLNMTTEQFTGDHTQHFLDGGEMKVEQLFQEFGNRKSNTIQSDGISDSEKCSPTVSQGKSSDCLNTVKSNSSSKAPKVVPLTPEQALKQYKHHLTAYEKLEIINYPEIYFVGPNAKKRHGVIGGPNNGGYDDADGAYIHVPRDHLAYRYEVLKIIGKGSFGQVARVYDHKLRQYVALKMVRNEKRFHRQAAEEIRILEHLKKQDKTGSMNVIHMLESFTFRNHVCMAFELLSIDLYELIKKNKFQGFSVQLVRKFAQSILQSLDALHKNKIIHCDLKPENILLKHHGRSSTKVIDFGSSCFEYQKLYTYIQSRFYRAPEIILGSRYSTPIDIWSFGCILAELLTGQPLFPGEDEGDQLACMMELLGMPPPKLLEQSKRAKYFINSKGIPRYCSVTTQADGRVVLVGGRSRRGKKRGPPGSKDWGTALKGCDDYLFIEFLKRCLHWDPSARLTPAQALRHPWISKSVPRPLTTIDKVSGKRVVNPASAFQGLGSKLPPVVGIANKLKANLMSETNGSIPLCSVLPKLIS

[7] = molecular target: Dual specificity protein kinase CLK3 (Homo sapiens, UniProt P49761); type: cell-based, Sf9
[8] = molecular target: T3, Dual specificity tyrosine-phosphorylation-regulated kinase 4 (Homo sapiens, UniProt Q9NR20)
T3 sequence (Q9NR20 whole entry): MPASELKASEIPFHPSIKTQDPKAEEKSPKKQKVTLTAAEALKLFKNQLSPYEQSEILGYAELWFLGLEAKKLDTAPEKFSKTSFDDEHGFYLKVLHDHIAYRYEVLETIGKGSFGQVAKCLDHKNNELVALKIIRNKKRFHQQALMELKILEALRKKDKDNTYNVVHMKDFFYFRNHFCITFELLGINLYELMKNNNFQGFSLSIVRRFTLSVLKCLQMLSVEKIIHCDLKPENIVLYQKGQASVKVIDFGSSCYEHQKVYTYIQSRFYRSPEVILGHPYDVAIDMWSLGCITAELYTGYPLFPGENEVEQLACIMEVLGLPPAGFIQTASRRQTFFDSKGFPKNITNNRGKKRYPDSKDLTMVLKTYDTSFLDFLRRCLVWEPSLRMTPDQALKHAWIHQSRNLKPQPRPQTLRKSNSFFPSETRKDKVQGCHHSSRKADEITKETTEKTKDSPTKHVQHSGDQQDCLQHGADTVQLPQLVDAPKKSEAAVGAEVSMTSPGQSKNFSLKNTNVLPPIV

[9] = molecular target: Dual specificity protein kinase CLK2 (Homo sapiens, UniProt P49760)
Dual specificity protein kinase CLK2, sequence (P49760 whole entry): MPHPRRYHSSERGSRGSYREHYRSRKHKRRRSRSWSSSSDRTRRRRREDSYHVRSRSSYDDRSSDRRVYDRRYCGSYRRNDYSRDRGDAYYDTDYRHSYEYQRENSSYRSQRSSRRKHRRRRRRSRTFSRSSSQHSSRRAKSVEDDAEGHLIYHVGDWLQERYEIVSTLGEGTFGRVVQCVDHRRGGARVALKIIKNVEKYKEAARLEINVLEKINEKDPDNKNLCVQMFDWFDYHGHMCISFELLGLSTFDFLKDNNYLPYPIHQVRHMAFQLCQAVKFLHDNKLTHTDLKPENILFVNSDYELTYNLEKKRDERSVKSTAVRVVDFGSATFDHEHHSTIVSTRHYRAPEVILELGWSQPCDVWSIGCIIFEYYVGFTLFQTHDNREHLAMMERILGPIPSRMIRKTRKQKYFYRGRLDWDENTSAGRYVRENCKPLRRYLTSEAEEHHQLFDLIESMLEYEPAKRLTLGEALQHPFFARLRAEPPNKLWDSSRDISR

Casein kinase I isoform epsilon, sequence (P49674 whole entry, canonical isoform): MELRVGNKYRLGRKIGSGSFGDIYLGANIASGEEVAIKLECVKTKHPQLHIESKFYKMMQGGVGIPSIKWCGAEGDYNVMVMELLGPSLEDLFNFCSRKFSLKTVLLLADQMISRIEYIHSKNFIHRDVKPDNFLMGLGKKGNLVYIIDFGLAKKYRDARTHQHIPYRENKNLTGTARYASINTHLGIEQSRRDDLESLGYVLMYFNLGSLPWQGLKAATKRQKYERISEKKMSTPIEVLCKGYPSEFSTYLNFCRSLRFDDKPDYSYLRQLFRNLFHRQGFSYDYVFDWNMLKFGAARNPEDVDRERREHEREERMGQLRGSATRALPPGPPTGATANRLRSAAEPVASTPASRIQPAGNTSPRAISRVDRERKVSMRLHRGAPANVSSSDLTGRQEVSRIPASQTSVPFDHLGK
Cyclin-dependent kinase 5/CDK5 activator 1, sequence (Q00535 whole entry): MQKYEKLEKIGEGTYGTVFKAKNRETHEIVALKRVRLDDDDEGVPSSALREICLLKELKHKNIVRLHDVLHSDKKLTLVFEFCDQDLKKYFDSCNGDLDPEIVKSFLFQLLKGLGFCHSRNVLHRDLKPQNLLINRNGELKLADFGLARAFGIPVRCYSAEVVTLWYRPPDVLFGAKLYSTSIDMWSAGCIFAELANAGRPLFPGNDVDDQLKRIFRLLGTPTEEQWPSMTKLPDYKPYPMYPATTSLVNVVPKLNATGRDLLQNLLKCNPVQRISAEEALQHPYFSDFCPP
Cyclin-dependent kinase 5/CDK5 activator 1, sequence (Q15078 whole entry, further chain): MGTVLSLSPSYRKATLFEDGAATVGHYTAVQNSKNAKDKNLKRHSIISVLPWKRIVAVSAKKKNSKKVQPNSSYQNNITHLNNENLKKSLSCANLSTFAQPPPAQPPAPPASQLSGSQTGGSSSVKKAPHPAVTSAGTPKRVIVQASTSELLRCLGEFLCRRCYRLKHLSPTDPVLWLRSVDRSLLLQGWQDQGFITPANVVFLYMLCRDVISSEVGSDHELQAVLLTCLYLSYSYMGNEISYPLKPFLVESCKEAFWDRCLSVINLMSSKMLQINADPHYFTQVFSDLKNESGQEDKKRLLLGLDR
Glycogen synthase kinase-3 beta, sequence (P49841 whole entry): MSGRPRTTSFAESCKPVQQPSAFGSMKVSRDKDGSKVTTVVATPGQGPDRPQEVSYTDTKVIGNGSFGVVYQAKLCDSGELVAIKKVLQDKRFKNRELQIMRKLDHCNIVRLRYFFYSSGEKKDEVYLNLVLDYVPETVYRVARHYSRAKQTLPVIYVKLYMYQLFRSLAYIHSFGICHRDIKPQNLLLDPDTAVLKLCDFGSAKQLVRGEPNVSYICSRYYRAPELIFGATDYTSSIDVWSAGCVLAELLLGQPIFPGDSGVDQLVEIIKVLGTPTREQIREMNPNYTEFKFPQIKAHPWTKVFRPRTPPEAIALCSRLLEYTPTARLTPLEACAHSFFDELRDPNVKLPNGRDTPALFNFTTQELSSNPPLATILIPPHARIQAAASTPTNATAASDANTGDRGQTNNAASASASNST
Dual specificity protein kinase CLK4, sequence (Q9HAZ1 whole entry): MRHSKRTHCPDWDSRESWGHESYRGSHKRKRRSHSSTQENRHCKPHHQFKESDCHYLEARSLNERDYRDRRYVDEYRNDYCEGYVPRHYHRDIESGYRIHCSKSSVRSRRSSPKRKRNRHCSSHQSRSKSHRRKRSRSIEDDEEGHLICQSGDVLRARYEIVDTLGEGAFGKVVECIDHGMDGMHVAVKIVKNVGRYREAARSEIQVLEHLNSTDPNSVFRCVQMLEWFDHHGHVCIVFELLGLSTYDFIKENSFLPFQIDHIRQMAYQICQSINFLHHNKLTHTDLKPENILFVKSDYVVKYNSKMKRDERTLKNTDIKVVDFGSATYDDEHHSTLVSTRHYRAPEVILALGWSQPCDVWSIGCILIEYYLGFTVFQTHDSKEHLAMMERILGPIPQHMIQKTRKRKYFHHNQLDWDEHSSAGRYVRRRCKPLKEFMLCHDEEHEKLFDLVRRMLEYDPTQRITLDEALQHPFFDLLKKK
Dual specificity protein kinase CLK3, sequence (P49761 whole entry): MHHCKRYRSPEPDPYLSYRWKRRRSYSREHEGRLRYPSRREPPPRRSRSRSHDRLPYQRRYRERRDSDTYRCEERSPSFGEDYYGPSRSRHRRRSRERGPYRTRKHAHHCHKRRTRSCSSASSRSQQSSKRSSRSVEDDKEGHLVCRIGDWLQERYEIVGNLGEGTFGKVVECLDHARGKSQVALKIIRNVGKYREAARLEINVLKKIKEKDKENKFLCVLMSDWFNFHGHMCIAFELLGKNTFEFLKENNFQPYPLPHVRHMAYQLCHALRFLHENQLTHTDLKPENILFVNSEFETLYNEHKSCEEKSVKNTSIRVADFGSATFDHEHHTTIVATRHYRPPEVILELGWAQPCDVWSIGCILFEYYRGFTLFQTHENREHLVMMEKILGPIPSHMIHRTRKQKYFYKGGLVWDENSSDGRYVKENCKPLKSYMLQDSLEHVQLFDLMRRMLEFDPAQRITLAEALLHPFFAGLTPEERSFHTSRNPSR

IC50 [1] [nM]	IC50 [2] [nM]	IC50 [3] [nM]	IC50 [4] [nM]	IC50 [5] [nM]	IC50 [6] [nM]	IC50 [7] [nM]	IC50 [8] [nM]	IC50 [9] [nM]	SMILES
78	> 10000	> 10000	7830	> 10000	647	3860	> 10000	–	CN1CCC(NC2=N/C(=C\c3ccc4ncsc4c3)C(=O)N2)CC1
11	> 10000	> 10000	390	> 10000	–	2040	180	–	O=C1NC(N[C@@H]2c3ccccc3C[C@H]2O)=N/C1=C\c1ccc2ncsc2c1
71	> 10000	> 10000	6530	> 10000	3060	> 10000	–	3520	Cc1ccc(NC2=N/C(=C\c3ccc4ncsc4c3)C(=O)N2)cc1F
14	1270	> 10000	235	> 10000	741	848	–	50	CO[C@@H]1Cc2ccccc2[C@H]1NC1=N/C(=C\c2ccc3ncsc3c2)C(=O)N1 (racemic)
71	9030	> 10000	> 10000	> 10000	> 10000	7010	> 10000	–	O=C1NC(NCc2nc3ccccc3s2)=N/C1=C\c1ccc2ncsc2c1
26	3310	> 10000	–	> 10000	–	4390	3120	100	O=C1NC(N[C@@H](CO)CC2CCCCC2)=N/C1=C\c1ccc2ncsc2c1
34	7740	> 10000	2390	> 10000	4030	2260	–	627	O=C1NC(Nc2ncccn2)=N/C1=C\c1ccc2ncsc2c1
351	> 10000	> 10000	4710	> 10000	–	5040	> 10000	–	Cc1nc2ccc(/C=C3\N=C(NC4CCCCC4)NC3=O)cc2s1
14	2740	> 10000	886	> 10000	–	295	1150	90	O=C1NC(N[C@@H](CO)Cc2ccccc2)=N/C1=C\c1ccc2ncsc2c1
19	2440	4660	145	> 10000	–	1660	597	14	CC(=O)OC12CC3CC(CC(NC4=N/C(=C\c5ccc6ncsc6c5)C(=O)N4)(C3)C1)C2
100	> 10000	> 10000	5170	> 10000	> 10000	> 10000	–	3480	CO[C@H]1Cc2ccccc2[C@H]1NC1=N/C(=C\c2ccc3ncsc3c2)C(=O)N1 (racemic)
24	13000	> 10000	2300	> 10000	1900	880	2600	–	CO[C@H]1CC[C@H](NC2=N/C(=C\c3ccc4ncsc4c3)C(=O)N2)CC1
12	6190	> 10000	592	> 10000	–	1790	–	–	O=C1NC(NCCCn2ccnc2)=N/C1=C\c1ccc2ncsc2c1
–	4690	5500	389	> 10000	299	173	326	39	O=C1NC(NC2CCC(F)(F)C2)=N/C1=C\c1ccc2ncsc2c1 (racemic)
3	429	> 10000	1540	> 10000	–	713	2040	–	O=C1NC(N[C@H]2c3ccccc3C[C@@H]2O)=N/C1=C\c1ccc2ncsc2c1
–	9200	> 10000	1180	> 10000	1640	604	1850	236	O=C1NC(N[C@@H]2CCCOC2)=N/C1=C\c1ccc2ncsc2c1
161	659	3290	702	> 10000	–	167	1740	531	COC(=O)C1(NC2=N/C(=C\c3ccc4ncsc4c3)C(=O)N2)C2CC3CC(C2)CC1C3 (stereo unspecified)
14	> 10000	> 10000	> 10000	> 10000	> 10000	1240	–	31	Cc1ccc(CNC2=N/C(=C\c3ccc4ncsc4c3)C(=O)N2)cc1C
–	4310	> 10000	352	> 10000	1510	270	1560	148	COC(CNC1=N/C(=C\c2ccc3ncsc3c2)C(=O)N1)c1ccccc1 (racemic)
–	5690	2380	391	8460	296	175	321	24	O=C1NC(NC2CCCC(F)(F)C2)=N/C1=C\c1ccc2ncsc2c1 (racemic)
12	> 10000	> 10000	2810	> 10000	2320	2700	4890	–	CN1CCC(NC2=N/C(=C\c3ccc4ncsc4c3)C(=O)N2)C1=O (racemic)
34	3710	> 10000	1350	> 10000	–	697	2150	349	O=C1NC(NCCc2ccccn2)=N/C1=C\c1ccc2ncsc2c1
–	3260	> 10000	613	> 10000	1030	1230	1240	109	O=C1NC(NCc2ccncc2)=N/C1=C\c1ccc2ncsc2c1
32	9030	> 10000	3950	> 10000	–	4140	8330	303	Cc1cnc(CNC2=N/C(=C\c3ccc4ncsc4c3)C(=O)N2)cn1

SMILES	IC50 [1] [nM]	IC50 [2] [nM]	IC50 [3] [nM]	IC50 [4] [nM]	IC50 [5] [nM]	IC50 [6] [nM]	IC50 [7] [nM]	IC50 [8] [nM]	IC50 [9] [nM]
O=C1NC(N[C@H]2CN3CCC2CC3)=N/C1=C\c1ccc2ncsc2c1	11	> 10000	> 10000	–	–	199	1750	–	40
O=C1NC(Nc2ccccc2)=N/C1=C\c1ccc2c(c1)OCO2	23	600	–	–	–	–	1200	–	–
O=C1NC(N[C@@H]2CN3CCC2CC3)=N/C1=C\c1ccc2ncsc2c1	169	> 10000	> 10000	–	–	483	4350	–	1170
